One data set has as its system adult patients with ADHD. The data set can be described thus: Phase 2 randomized, double-blind, 2-period crossover trial in adults with ADHD. In kind it is in vivo. The protocol:
*This phase 2 study evaluated the efficacy, tolerability and safety of CX717 in the treatment of adult patients with ADHD. The study was designed and executed as a randomized, double-blind, multi-center, 2-period crossover study comparing 2 doses of CX717 (200 mg, or 800 mg, BID) with placebo. Each treatment period lasted 3 weeks with a 2-week washout in between. Subjects met DSM-IV criteria for adult ADHD and had moderate to severe symptoms. The primary efficacy measure was the change from baseline on the ADHD Rating Scale (ADHD-RS) with adult ADHD prompts.
The present study further examined the clinical efficacy, tolerability and safety of CX717 as a drug treatment for adults with ADHD. […] Each treatment period was 3 weeks in duration with a 2-week washout in between. The study design was modeled after several similarly published ADHD studies with atomoxetine and stimulants, (Spencer et al.) with sample sizes in the mid 20s. Since this is the first such study with CX7171 in ADHD, it is assumed that efficacy would be achieved using historical assumptions in effect size, therefore, a total of 60 subjects were to be randomized.
All patients met DSM-IV criteria for adult ADHD, established by the Adult ADHD Clinical Diagnostic Scale (ACDS) Version 1.2. All patients gave written informed consent prior to enrollment and the conduct of the study was approved by either the […] Review Board (IRB) at each site or by the central IRB. Each subject had at least moderately severe ADHD symptoms (ADHD-RS score of ≥22; Clinician's Global Impression of Severity [CGI-S] score of ≥4). Each subject was male, and between 18-50 years old, inclusively. Male patients were selected because the necessary reproductive toxicology studies that would have allowed women of childbearing potential to be included in the study had not been completed.
CX717 capsules were administered orally as 200 mg BID or 800 mg BID doses. […] The study was divided into a series of periods: screening period—up to 4 weeks, treatment period 1-3 weeks; wash-out period—2 weeks; treatment period 2-3 weeks; follow-up period—approximately 1 week.
The primary efficacy outcome measure was the comparison of each dose of CX717 versus placebo on the change from baseline in ADHD symptoms as measured by the ADHD-RS at Week 3. Secondary efficacy parameters included comparisons of each dose of CX717 versus placebo for the ADHD-RS Inattentiveness Subscale Score of the ADHD-RS.
Safety was evaluated by adverse events (AEs), clinical laboratory tests, vital signs, physical examination, and electrocardiograms (ECGs).
The primary efficacy endpoint was the change from baseline in the ADHD-RS total score. Variables for the primary endpoint as well as for the secondary endpoint were based on within patient comparisons of high dose with placebo and low dose with placebo. The analyses treated subjects receiving high dose or placebo in either order as a unique entity and similarly, subjects who received low dose or placebo in either order as a unique group of its own. The primary efficacy analysis utilized the paired t-test. Descriptive statistics (number of observations, mean, standard deviation, median, minimum and maximum values) for the total score and the change from baseline were calculated by treatment group and visit and the last value was presented for both the intent-to-treat (ITT) and per protocol (PP) populations. All hypotheses testing for change from Baseline of scores, except testing for significant interaction, were performed at the 2-tailed 5% alpha significance level. P-values, based on 2-tailed tests, were rounded to 1 more decimal place than the standard deviation, up to a maximum of 3 decimal places; p-values <0.001 were presented as ‘<0.001’ in all tables.

Data set [1] can be described thus: Phase 1 studies (safety, tolerability, pharmacokinetics). It is filed as in vivo.
The next data set deals with Rat (Lister). The data set can be described thus: 5 Choice serial reaction time task. It is filed as in vivo. The source says:
Another useful animal model for evaluating ampakine activity is the Five Choice Serial Reaction Time Task in Rats. This assay requires rats to provide a single nose poke in response to a light stimulus presented in one of five locations within a 9-hole chamber. With a correct response a reward is delivered that the rat collects from the food magazine at the rear of the chamber. The withdrawal of its head from the food magazine initiates a short inter-trial interval followed by the presentation of the next randomly presented stimulus. An incorrect response results in a time out period (non-reinforcement) followed by the initiation of a new trial. Groups of 12 rats were used in this study, and all rats received all treatments using a randomized sequence. For evaluation using this model, CX1739 was selected as the exemplary low impact ampakine, administered at doses of 3 and 10 mg/kg i.p. 20 min prior to the start of the study.

Data set [2] is described as follows: Limit of solubility (in ACSF perfusion). It is filed as physicochemical. The note with it: artificial cerebral spinal fluid (ACSF), aqueous buffer, kinetic from dmso stock.

Structures are written as SMILES. Values after ≈ are worked out from the molar mass of the structure shown. Where two headings read alike, the source gives them in different places.

As to `O=C(c1ccc2nonc2c1)N1CCOCC1` [CX717, 1-(benzofurazan-5-ylcarbonyl)morpholine], in the data set with adult patients with ADHD (200 mg BID), the “ADHD-RS total and subscales versus placebo” value is listed as “no statistically significant differences”. Besides, the “deaths or serious adverse events” value in the data set with adult patients with ADHD (200 mg or 800 mg BID for 3 weeks) is “No deaths or serious adverse events”. The “total ADHD-RS, repeated measures analysis at endpoint” value in the data set with adult patients with ADHD (800 mg BID vs placebo, p=0.002) is given as “superior efficacy compared to placebo”. For the same compound, the “ADHD-RS hyperactivity subscale, repeated measures analysis” value in the data set on adult patients with ADHD (800 mg BID vs placebo, p=0.017) was “superior efficacy compared to placebo”. In addition, the “ADHD-RS inattentiveness subscale, repeated measures analysis” value with adult patients with ADHD (800 mg BID vs placebo, p=0.027) is listed as “superior efficacy compared to placebo”. In the data set on adult patients with ADHD (800 mg, 504 h), the “mean change from baseline of ADHR-RS total score” value is listed as −9.95. Also, the “ADHD-RS hyperactivity subscale mean difference vs placebo” value in the data set on adult patients with ADHD (active dose vs. placebo, last value) is on record as 1.94; in the data set on adult patients with ADHD (high dose, Week 1) it was 2.00; in the data set on adult patients with ADHD (high dose, Week 3), 3.18; with adult patients with ADHD (high dose, last value), 3.00. Also, in the data set with adult patients with ADHD (either dose (200 mg or 800 mg BID), 3 weeks), the “tolerability and safety parameters” value is “well tolerated with no clinically significant changes in cardiovascular and other safety parameters”. Further, the “overall incidence of treatment-emergent adverse events (TEAEs)” value with adult patients with ADHD (high dose (800 mg BID), placebo high dose 56%) was determined as 75%; in the data set with adult patients with ADHD (low dose (200 mg BID), placebo low dose 55%), 73%. For the same compound, the “ADHD-RS hyperactivity subscale mean score (change from baseline)” value is listed as −4.22 in the data set on adult patients with ADHD (high dose, Week 1, ITT, placebo −2.22, p=0.192) and −5.68 in the data set on adult patients with ADHD (high dose, Week 3, ITT, placebo −2.78, p=0.050). The “difference from placebo in mean change of ADHR-RS total score” value in the data set on adult patients with ADHD (high dose, after 3 weeks) was −4.73. In the data set with adult patients with ADHD (in vivo), the “most frequently reported adverse events” value is “Sleep disturbances and headache”. For the same compound, the “ADHD-RS hyperactivity subscale versus placebo, repeated measures” value in the data set on adult patients with ADHD (low dose) was “No difference”. Besides, in the data set on adult patients with ADHD (low dose (200 mg BID)), the “ADHD-RS total score versus placebo” value is on record as “did not differ from placebo”. In addition, the absorption entry in data set [1] (human) is on record as “dose-proportional manner”. For the same compound, the half-life in data set [1] (human, in vivo, read-out: elimination half-life (t1/2)) fell in the range of 9 to 10 h. In data set [1] (human, in vivo, read-out: time-to-maximum concentration (tmax)), the Tmax lay in the range of 4 to 5 h. Also, the “tolerability in healthy volunteers” value in data set [1] (in vivo) is reported as “well-tolerated with no serious AEs”.
Regarding `CN(C(=O)c1ccc2nonc2c1)C1CCOCC1` [CX1739, N-Methyl-N-tetrahydro-2H-pyran-4-yl-[2,1,3]-benzoxadiazole-5-carboxamide], in the data set with Rat (Lister) (10 mg/kg), the “latency to correct responses” value is listed as “significantly reduced” and the omissions result was “significant improvement”. In addition, in the data set on Rat (Lister) (3 and 10 mg/kg ip), the accuracy of responding result is reported as “significantly improved” and the “number of premature responses” value is on record as “reduced”. Besides, in the data set with Rat (Lister) (IP, dose range 3-10 mg/kg), the “Minimum Effective Dose” value was determined as 3 mg/kg. Also, the solubility (as a rule, the concentration that dissolves in the medium under given conditions) in data set [2] (read-out: limit of solubility) is 200 µM (≈ 52.3 µg/mL). In addition, the solubility in data set [2] (read-out: limit of the drug's solubility) was around 200 µM (≈ 52.3 µg/mL).

These data come from patent US20210340130A1, “Compositions and methods for treating attention deficit disorders” (priority 2016, published 2021).
